{
  "source": "PubChem BioAssay AID1963831",
  "about": "(Molecular Pharmacology Branch, DTP, NCI, 2024);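 further: spheroids exposed to compounds for seven days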;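 on viability, T/C: 100% = DMSO vehicle control viability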",
  "test_system": "889142-216-R-J1-PDC complex spheroid viability",
  "test": "Anticancer human tumor 889142-216-R-J1-PDC patient-derived bladder carcinoma cell line growth inhibition [POLQ]",
  "details": "for IC50: curve of first compound; for viability, T/C: stronger effect = lower value",
  "how_it_was_run": "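Patient-derived tumour cells were co-cultured with HUVEC and mesenchymal stem cells as multicellular spheroids at 37 °C. They were treated with POLQ inhibitors (novobiocin, ART-558, RP6685) alone or combined with other agents. Top concentrations were at or near clinical Cmax (otherwise 10 microM; SN-38 at 1 microM), decreasing in half-log steps.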",
  "data": [
    {"smiles": "Cn1ncnc1[C@H]1c2n[nH]c(=O)c3cc(F)cc(c23)N[C@@H]1c1ccc(F)cc1", "note": "+ COC1C(OC(N)=O)C(O)C(Oc2ccc3c(O)c(NC(=O)c4ccc(O)c(CC=C(C)C)c4)c(=O)oc3c2C)OC1(C)C", "values": [
      {"measurement": "IC50", "setting": "second compound 0.0316 µM", "result": "> 100", "unit": "nM"},
      {"measurement": "IC50", "setting": "second compound 0.1 µM", "result": "> 100", "unit": "nM"},
      {"measurement": "IC50", "setting": "second compound 0.316 µM", "result": "> 100", "unit": "nM"},
      {"measurement": "IC50", "setting": "second compound 1 µM", "result": "> 100", "unit": "nM"},
      {"measurement": "IC50", "setting": "second compound 3.16 µM", "result": "> 100", "unit": "nM"},
      {"measurement": "IC50", "setting": "second compound 10 µM", "result": "> 100", "unit": "nM"},
      {"measurement": "viability, T/C", "setting": "second compound 0.0316 µM, first compound 0.000316 µM", "result": 97, "unit": "%"},
      {"measurement": "viability, T/C", "setting": "second compound 0.0316 µM, first compound 0.001 µM", "result": 95, "unit": "%"},
      {"measurement": "viability, T/C", "setting": "second compound 0.0316 µM, first compound 0.00316 µM", "result": 93.1, "unit": "%"},
      {"measurement": "viability, T/C", "setting": "second compound 0.0316 µM, first compound 0.01 µM", "result": 80.6, "unit": "%"},
      {"measurement": "viability, T/C", "setting": "second compound 0.0316 µM, first compound 0.0316 µM", "result": 73.3, "unit": "%"},
      {"measurement": "viability, T/C", "setting": "second compound 0.0316 µM, first compound 0.1 µM", "result": 76.8, "unit": "%"},
      {"measurement": "viability, T/C", "setting": "second compound 0.1 µM, first compound 0.000316 µM", "result": 108, "unit": "%"},
      {"measurement": "viability, T/C", "setting": "second compound 0.1 µM, first compound 0.001 µM", "result": 92.7, "unit": "%"},
      {"measurement": "viability, T/C", "setting": "second compound 0.1 µM, first compound 0.00316 µM", "result": 74.2, "unit": "%"},
      {"measurement": "viability, T/C", "setting": "second compound 0.1 µM, first compound 0.01 µM", "result": 73.7, "unit": "%"},
      {"measurement": "viability, T/C", "setting": "second compound 0.1 µM, first compound 0.0316 µM", "result": 73.4, "unit": "%"},
      {"measurement": "viability, T/C", "setting": "second compound 0.1 µM, first compound 0.1 µM", "result": 72.5, "unit": "%"},
      {"measurement": "viability, T/C", "setting": "second compound 0.316 µM, first compound 0.000316 µM", "result": 90.8, "unit": "%"},
      {"measurement": "viability, T/C", "setting": "second compound 0.316 µM, first compound 0.001 µM", "result": 87.8, "unit": "%"},
      {"measurement": "viability, T/C", "setting": "second compound 0.316 µM, first compound 0.00316 µM", "result": 90.9, "unit": "%"},
      {"measurement": "viability, T/C", "setting": "second compound 0.316 µM, first compound 0.01 µM", "result": 91.9, "unit": "%"},
      {"measurement": "viability, T/C", "setting": "second compound 0.316 µM, first compound 0.0316 µM", "result": 85, "unit": "%"},
      {"measurement": "viability, T/C", "setting": "second compound 0.316 µM, first compound 0.1 µM", "result": 66.6, "unit": "%"},
      {"measurement": "viability, T/C", "setting": "second compound 1 µM, first compound 0.000316 µM", "result": 88.9, "unit": "%"},
      {"measurement": "viability, T/C", "setting": "second compound 1 µM, first compound 0.001 µM", "result": 77.4, "unit": "%"},
      {"measurement": "viability, T/C", "setting": "second compound 1 µM, first compound 0.00316 µM", "result": 89.2, "unit": "%"},
      {"measurement": "viability, T/C", "setting": "second compound 1 µM, first compound 0.01 µM", "result": 117, "unit": "%"},
      {"measurement": "viability, T/C", "setting": "second compound 1 µM, first compound 0.0316 µM", "result": 85, "unit": "%"},
      {"measurement": "viability, T/C", "setting": "second compound 1 µM, first compound 0.1 µM", "result": 79.6, "unit": "%"},
      {"measurement": "viability, T/C", "setting": "second compound 3.16 µM, first compound 0.000316 µM", "result": 97.9, "unit": "%"},
      {"measurement": "viability, T/C", "setting": "second compound 3.16 µM, first compound 0.001 µM", "result": 100, "unit": "%"},
      {"measurement": "viability, T/C", "setting": "second compound 3.16 µM, first compound 0.00316 µM", "result": 103, "unit": "%"},
      {"measurement": "viability, T/C", "setting": "second compound 3.16 µM, first compound 0.01 µM", "result": 83.9, "unit": "%"},
      {"measurement": "viability, T/C", "setting": "second compound 3.16 µM, first compound 0.0316 µM", "result": 71.5, "unit": "%"},
      {"measurement": "viability, T/C", "setting": "second compound 3.16 µM, first compound 0.1 µM", "result": 74.1, "unit": "%"},
      {"measurement": "viability, T/C", "setting": "second compound 10 µM, first compound 0.000316 µM", "result": 72.9, "unit": "%"},
      {"measurement": "viability, T/C", "setting": "second compound 10 µM, first compound 0.001 µM", "result": 115, "unit": "%"},
      {"measurement": "viability, T/C", "setting": "second compound 10 µM, first compound 0.00316 µM", "result": 89.8, "unit": "%"},
      {"measurement": "viability, T/C", "setting": "second compound 10 µM, first compound 0.01 µM", "result": 119, "unit": "%"},
      {"measurement": "viability, T/C", "setting": "second compound 10 µM, first compound 0.0316 µM", "result": 80.4, "unit": "%"},
      {"measurement": "viability, T/C", "setting": "second compound 10 µM, first compound 0.1 µM", "result": 59.6, "unit": "%"}
    ]}
  ]
}
